Source: patent US9636317B2, “Compositions and methods of use of phorbol esters” (priority 2007, dated 2017)
Where “and” joins values, the source holds several entries; their conditions need not be identical. Equal values may be shown once. Entries after “also recorded” stand apart in the source; their conditions may differ.

What was measured:
[1] = Dose ranging study: toxicity and side effects of TPA doses given clinically by i.v. infusion; type: in vivo, human
Procedure: Due to the strong local irritation caused by TPA application, TPA was given to patients by intravenous (i.v.) infusion. TPA solution in a sterile syringe was injected into 200 ml of sterile saline and mixed well for i.v. infusion.
One mg TPA in solution was mixed well with 200 ml of sterile saline for intravenous infusion which was completed in 1 h at the rate of 16 μg/min. […] The above symptoms could be alleviated by giving the patients glucocorticoids. […] However, these side effects were short lived and reversible. The cardiac, hepatic, renal and pulmonary functions were all found to be normal.
0.5 mg of TPA in solution was mixed well with 200 ml of saline for intravenous infusion which was completed in 1 h at the rate of 8 μg/min. […] The patients tolerated the lower dose more easily. […] Difficulty in breathing was not observed. The cardiac, hepatic, renal and pulmonary functions were all normal.
0.25 mg of TPA in solution was mixed well with 200 ml of saline for intravenous infusion which was completed in 1 h at the rate of 4 μg/min. […] The cardiac, hepatic, renal and pulmonary functions were all normal.

[2] = test system: pancreatic cancer, non-small-cell lung cancer, nasopharyngeal carcinoma; assay: TPA as an adjuvant to traditional neoplasm treatments (patient cases); type: in vivo, human
Procedure: Patient three was diagnosed with terminal metastasized pancreatic cancer. They received five injections of 0.18 mg TPA (0.125 mg/m^2) per week for 12 weeks in addition to chemotherapy.
Patient nine was diagnosed with non-small-cell lung cancer. The cancer had metastasized and was refractory to Tarceva® (erlotinib) and Iressa™ (gefitinib). The patient was treated with a combination of gemcitabine and cisplatin according to standard protocols accompanied by an injection of 0.19 mg of TPA (0.125 mg/m^2) each weekday for eight weeks. […] They have been in remission since Jun. 30, 2010.
Patient thirteen was diagnosed with terminal nasopharyngeal carcinoma and treated with both chemotherapy and radiotherapy. They received injections of 0.19 mg of TPA (0.125 mg/m^2) of TPA a day for five days prior to beginning radiotherapy and then 0.19 mg of TPA (0.125 mg/m^2) every other day for a total of 20 injections.

[3] = test system: CD3, CD4 and CD8 levels in peripheral blood; assay: Third clinical study of HIV+ patients: CD3, CD4, CD8 by flow cytometry; type: in vivo, human; set-up: unit not given here; conditions: one value per patient
Procedure: Six patients, two males and four females between the ages of 37 and 52 years of age (Patients #13-18), were treated with TPA. Four of these patients previously received TPA treatment in combination with anti-HIV drugs in the two previous clinical studies. The two remaining patients had never been treated with TPA, but had previously received anti-HIV drug regimens. All treatments were stopped three days prior to the initiation of the third clinical study and were not resumed until 60 days after completion of the TPA treatment. The resumption of the standard HIV treatments was required by local health authorities.
Each patient in the study received 150 μg of TPA in 200 ml of sterile saline by intravenous infusion over a 1.5 to 2 hour period daily for 60 days for a total administered dose of 9.0 mg. Following completion of the 60 days of TPA therapy, these patients remained under observation for an additional 60 days though the received no further treatment.
CD3, CD4 and CD8 levels in peripheral blood were quantitated prior to starting treatment, and again at 30 and 60 days using flow cytometry and the appropriate antibodies obtained from B.D. Bioscience, San Diego, Calif. Viral load was determined using conventional methods at Kuang Ann men Hospital, Beijing, China. Patients RBC, WBC, platelets and hemoglobin levels were also measured.

[4] = Second clinical study of HIV+ patients: periphery blood count; type: in vivo, human; conditions: one value per patient
Procedure: (§1) Nine of the patients in Example III were given a second treatment of TPA. Of these nine, seven were asymptomatic at the beginning of the second trial. A tenth patient (patient #2a) who was symptomatic and had not previously been treated with TPA was added to the study. Each patient was administered a weight adjusted dosage of TPA (75 μg/sq m) in 200 ml of sterile saline intravenously over one hour. This dosage was given to each patient once a day for ten consecutive days followed by a rest period of ten days for three cycles and a total of 30 doses of TPA. Patients 5a, 6a, and 8a stopped taking anti-AIDS drugs one month prior to beginning the TPA treatment and beginning again one month after the third cycle. Patients 1-4-a, 7a, and 9a-10a continued taking anti-AIDS drugs throughout the treatment.
Blood samples were taken three days prior to starting treatment, after completing the first 10 day cycle of TPA infusion and again after the last TPA infusion and CD3, CD4, CD8, WBC, RBC, HGB and platelets were measured.

[5] = test system: HIV patients; assay: Second clinical study of HIV+ patients: symptoms and side effects (incl. case studies); type: in vivo, human
Procedure: as §1
Results of treatment of initially symptomatic AIDS patients treated with TPA according to the protocols of Example III, IV, and V. Patients who participated in multiple studies are in some cases identified by more than one patient number. All patient identification numbers correspond to the patient numbers in Tables 1-7.

[6] = test system: primary AML cells; assay: Primary AML cultures ex vivo: cell viability, apoptosis assays and Western analysis of ERK; type: cell-based, human
Description: In addition to protein kinase C and ERK activation, TPA is a known inducer of NF-κB, a pro-survival transcription factor often constitutively active in AML blasts and leukemic stem cells.

[7] = After first 10-day TPA infusing
[8] = After third 10-day TPA infusing
[9] = protocol of Example IV, individual patients

**Q.** Which “Hb in the urine” value ([1]; 0.25 mg/patient ×4/week) does the source give for `CCCCCCCCCCCCCC(=O)O[C@@H]1[C@@H](C)[C@@]2(O)[C@@H](C=C(CO)C[C@]3(O)C(=O)C(C)=C[C@@H]23)[C@@H]2C(C)(C)[C@]12OC(C)=O` [TPA, 12-O-tetradecanoylphorbol-13-acetate] here?
**A.** No Hb was detected in the urine

**Q.** What about the “cardiac, hepatic, renal and pulmonary functions” value (shortened to “cardiac, hepatic”) ([1]; 0.25 mg/patient ×4/week) of the same compound?
**A.** normal

**Q.** What about the chills and fever ([1]; 0.25 mg/patient ×4/week) of the same compound?
**A.** observed, but to a much lesser extent than with the higher dosages

**Q.** And the difficulty in breathing ([1]; 0.25 mg/patient ×4/week)?
**A.** no patient suffered difficulty in breathing

**Q.** What about the “Hb in the urine” value ([1]; 0.5 mg/patient ×2/week) of the same compound?
**A.** Occasionally, Hb was detected in patients' urine

**Q.** What about the “cardiac, hepatic” value ([1]; 0.5 mg/patient ×2/week) of the same compound?
**A.** normal

**Q.** And the difficulty in breathing ([1]; 0.5 mg/patient ×2/week)?
**A.** not observed

**Q.** What about the “Hb in the urine” value ([1]; 1 mg/patient/week) of the same compound?
**A.** Hb was detected in the urine

**Q.** What about the bleeding ([1]; 1 mg/patient/week) of the same compound?
**A.** caused a minority of patients to bleed

**Q.** And the “cardiac, hepatic” value ([1]; 1 mg/patient/week)?
**A.** normal

**Q.** What about the difficulty in breathing ([1]; 1 mg/patient/week) of the same compound?
**A.** several patients suffered for a short period of time difficulty in breathing

**Q.** And the duration of fever ([1]; 1 mg/patient/week i.v. infusion)?
**A.** 3 to 5 h

**Q.** And the “patients' temperature (fever)” value ([1]; 1 mg/patient/week i.v. infusion in 1 h)?
**A.** 37.5-39.5 °C

**Q.** And the duration of chills ([1]; 1 mg/patient/week i.v. infusion, start one hour after administration)?
**A.** about 30 min

**Q.** And the “tumor in the pancreas” value ([2]; five injections of 0.18 mg TPA per week for 12 weeks in addition to chemotherapy, from 6.3 cm)?
**A.** 2.4 cm

**Q.** And the “skin damage from radiation treatment” value ([2]; nasopharyngeal carcinoma patient)?
**A.** did not suffer any apparent skin damage

**Q.** What about the remission ([2]; nasopharyngeal carcinoma patient, chemotherapy and radiotherapy plus 20 injections of 0.19 mg TPA) of the same compound?
**A.** in remission for two and a half years

**Q.** What about the “side effects of chemotherapy” value ([2]; non-small-cell lung cancer patient, gemcitabine and cisplatin plus 0.19 mg TPA each weekday for eight weeks) of the same compound?
**A.** did not lose any hair and had significantly less nausea

**Q.** What about the remission ([2]; non-small-cell lung cancer patient, gemcitabine and cisplatin plus TPA) of the same compound?
**A.** in remission since Jun. 30, 2010

**Q.** And the “side effects of chemotherapy” value ([2]; pancreatic cancer patient, TPA in addition to chemotherapy)?
**A.** significantly less vomiting and nausea than in prior chemotherapy treatments without TPA

**Q.** And the CD3 ([3]; Sixty Days After TPA)?
**A.** 902 and 2099 and 1305 and 317 and 579 and 2689

**Q.** What about the CD4 ([3]; Sixty Days After TPA) of the same compound?
**A.** 369 and 11 and 46 and 31 and 165 and 721

**Q.** And the CD8 ([3]; Sixty Days After TPA)?
**A.** 485 and 1507 and 1220 and 246 and 290 and 1897

**Q.** And the CD3 ([3]; Thirty Days After TPA, 150 μg i.v. daily for 60 days)?
**A.** 1522 and 1865 and 1477 and 594 and 703 and 2771

**Q.** And the CD4 ([3]; Thirty Days After TPA)?
**A.** 613 and 8 and 105 and 112 and 229 and 735

**Q.** And the CD8 ([3]; Thirty Days After TPA)?
**A.** 796 and 1408 and 1318 and 424 and 343 and 1938

**Q.** What about the HGB [4, 7] of the same compound?
**A.** 88 g/L and 1.38 g/L and 107 g/L and 1.35 g/L and 142 g/L and 143 g/L and 128 g/L and 57 g/L and 92 g/L and 99 g/L

**Q.** And the PLt [4, 7]?
**A.** 2.38e+11 L⁻¹ and 3.38e+11 L⁻¹ and 3.06e+11 L⁻¹ and 3.15e+11 L⁻¹ and 2.56e+11 L⁻¹ and 2.58e+11 L⁻¹ and 2.21e+11 L⁻¹ and 2.14e+11 L⁻¹ and 1.87e+11 L⁻¹ and 3.25e+11 L⁻¹

**Q.** And the RBC [4, 7]?
**A.** 2.14e+12 L⁻¹ and 3.83e+12 L⁻¹ and 2.92e+12 L⁻¹ and 3.46e+12 L⁻¹ and 3.48e+12 L⁻¹ and 3.76e+12 L⁻¹ and 3.86e+12 L⁻¹ and 1.99e+12 L⁻¹ and 2.58e+12 L⁻¹ and 2.61e+12 L⁻¹

**Q.** What about the WBC [4, 7] of the same compound?
**A.** 3.7e+09 L⁻¹ and 9.8e+09 L⁻¹ and 3.6e+09 L⁻¹ and 5.7e+09 L⁻¹ and 4.2e+09 L⁻¹ and 6e+09 L⁻¹ and 4.3e+09 L⁻¹ and 2.6e+09 L⁻¹ and 2.9e+09 L⁻¹ and 4.4e+09 L⁻¹

**Q.** What about the HGB [4, 8] of the same compound?
**A.** 102 g/L and 100 g/L and 140 g/L and 105 g/L and 144 g/L and 154 g/L and 123 g/L and 128 g/L and 67 g/L and 130 g/L

**Q.** And the PLt [4, 8]?
**A.** 182 ×10^9/L and 124 ×10^9/L and 549 ×10^9/L and 105 ×10^9/L and 130 ×10^9/L and 169 ×10^9/L and 293 ×10^9/L and 138 ×10^9/L (2×) and 170 ×10^9/L

**Q.** And the RBC [4, 8]?
**A.** 2.91e+12 L⁻¹ and 2.52e+12 L⁻¹ and 4.54e+12 L⁻¹ and 2.85e+12 L⁻¹ and 3.61e+12 L⁻¹ and 3.66e+12 L⁻¹ and 3.92e+12 L⁻¹ and 4.19e+12 L⁻¹ and 2.33e+12 L⁻¹ and 4.31e+12 L⁻¹

**Q.** And the WBC [4, 8]?
**A.** 6.1e+09 L⁻¹ and 1.11e+10 L⁻¹ and 1.36e+10 L⁻¹ and 9.2e+09 L⁻¹ and 1.01e+10 L⁻¹ and 6.5e+09 L⁻¹ and 6e+09 L⁻¹ and 6.8e+09 L⁻¹ and 4e+09 L⁻¹ and 7e+09 L⁻¹

**Q.** And the “AIDS symptoms in the symptomatic patients (#9a, #2a)” value ([5]; after three cycles of TPA)?
**A.** experienced a disappearance of AIDS symptoms

**Q.** What about the “AIDS symptoms in the other eight patients” value ([5]; began the study without AIDS symptoms) of the same compound?
**A.** symptom free at the end of the study

**Q.** And the “adverse effects during TPA treatment (individual patient)” value ([5]; protocol of Example IV)?
**A.** no adverse effects; also recorded: no side effects

**Q.** And the “symptoms after treatment with TPA (individual patient)” value ([5]; protocol of Example IV)?
**A.** continues to have no symptoms of AIDS; also recorded: the fever and diarrhea were no longer a problem; also recorded: does not have any symptoms of AIDS; also recorded: has not had any symptoms of AIDS; also recorded: Her mental and physical condition has improved considerably

**Q.** What about the “duration of the increase in body temperature” value [5, 9] of the same compound?
**A.** two

**Q.** What about the “increase in body temperature during TPA treatment” value [5, 9] of the same compound?
**A.** 38.5 degrees centigrade

**Q.** What about the “cytotoxic effect (cell viability and apoptosis assays)” value ([6]; AML cases) of the same compound?
**A.** direct therapeutic cytotoxic effects in at least a subset of AML cases

**Q.** What about the phospho-ERK pro-survival signal ([6]; after 24 hour ex vivo exposure) of the same compound?
**A.** loss of the phospho-ERK pro-survival signal

**Q.** And the “ERK phosphorylation (Western analysis)” value ([6]; all primary cultures analyzed, by 1 hour in culture)?
**A.** strongly induced ERK phosphorylation
